Experiment: Toxicity in mouse erythrocytes assessed as hemolytic activity
Format: cell-based, Erythrocyte

Point of comparison: CC(C)CCC[C@@H](COS(=O)(=O)O)[C@H]1CC[C@H]2[C@@H]3CC=C4C[C@H](OS(=O)(=O)O)CC[C@]4(C)[C@H]3CC[C@]12C.NCCc1ccc(O)cc1, HC50 33 µM. Against it:
- CC(C)CCC[C@@H](COS(=O)(=O)O)[C@H]1CC[C@H]2[C@@H]3CC[C@H]4[C@@H](O)[C@H](OS(=O)(=O)O)CC[C@]4(C)[C@H]3CC[C@]12C — within 1.5-fold, 45 µM
- CC(C)CCC[C@@H](COS(=O)(=O)O)[C@H]1CC[C@H]2[C@@H]3CC[C@H]4C[C@H](OS(=O)(=O)O)CC[C@]4(C)[C@H]3CC[C@]12C — 3.3-fold lower, 10 µM
- CC(C)CCC[C@@H](COS(=O)(=O)O)[C@H]1CC[C@H]2[C@@H]3CC=C4[C@@H](O)[C@H](OS(=O)(=O)O)CC[C@]4(C)[C@H]3CC[C@]12C — 2.4-fold higher, 80 µM
- CC(C)CCC[C@@H](COS(=O)(=O)O)[C@H]1CC[C@H]2[C@@H]3CC[C@H]4C[C@H](OS(=O)(=O)O)CC[C@]4(C)[C@H]3CC[C@]12C.NCCc1ccc(O)cc1.NCCc1ccc(O)cc1 — 1.8-fold lower, 18 µM

From ChEMBL document CHEMBL1159350, “Hemolytic steroid disulfates from the far eastern starfish Pteraster pulvillus” (J Nat Prod, 2003)
